“Also recorded” adds a separate entry of the source.
What was measured:
C57BL/6 mice [1] = test: Thoracic spinal cord injury (SCI) model; type: in vivo, mouse
Protocol: A thoracic spinal cord injury model was induced in female 6-8 week old C57BL/6 mice. Spinal cord CB2 mRNA expression was evaluated in sham animals and SCI animals 24 hours after injury by real time RT-PCR. Animals were randomized into two groups: the experimental group received intraperitoneal injections of a selective CB2 agonist (O-1966; 1 mg/kg) one hour before injury, 24 and 48 hours after injury; the control group received equal volumes of vehicle. Both groups were tested for motor function by using the Basso Mouse Scale for Locomotion (BMS) and the Basso, Beattie, Bresnahan Locomotor Rating Scale (BBB) on post-procedure days 1, 7, and 14. Urine mass was recorded twice daily to assess bladder recovery. The inflammatory cytokine TNF-α was measured by real time RT-PCR in both groups 24 hours after SCI.

C57BL/6 mice [2] = test: Neurological evaluation (five-point deficit score) after MCAO/R; type: in vivo, mouse; details: 24 hours post-ischemia
Protocol: The animals were anesthetized with an intraperitoneal injection of Ketamine ([…])-Xylazine (20 mg/kg) mixture (1:1) at a dose of 1 ml/kg. Body temperature was maintained at […]° C. by a heating lamp and heating pad. Middle cerebral artery occlusion was achieved by the intraluminal filament methods. (Hata et al. 1998) Briefly, a midline neck incision was made under the operation microscope; the right common carotid artery (CCA), external carotid artery (ECA) and internal carotid artery (ICA) were isolated. The ECA was ligated with 6-0 silk suture distal from the ICA-ECA branch and then cut distal from ligated point. Another 6-0 silk suture was tied loosely around ECA at close to the origin at the CCA. A blunted 5-0 monofilament nylon suture coated with poly-L-lysine (0.1% in deionized water, Sigma) (Belayev et al. 1999) was introduced from a small incision on ECA and then advanced into the circle of Willis, and finally to the origin of the middle cerebral artery. […]
The severity of neurological deficits was evaluated 24 hours after ischemic insult using a five-point deficit score (0=normal motor function; 1=flexion of torso and of contralateral forelimb upon lifting of the animal by tail; 2=circling to the contralateral side but normal posture at rest; 3=leaning to contralateral side at rest; and 4=no spontaneous motor activity) (Hata et al. 1998).

C57BL/6 mice [3] = test: Infarct volume after middle cerebral artery occlusion and reperfusion (MCAO/R); type: in vivo, mouse; details: 24 hours after MCAO
Protocol: (§1) The animals were anesthetized with an intraperitoneal injection of Ketamine ([…])-Xylazine (20 mg/kg) mixture (1:1) at a dose of 1 ml/kg. Body temperature was maintained at […]° C. by a heating lamp and heating pad. Middle cerebral artery occlusion was achieved by the intraluminal filament methods. (Hata et al. 1998) Briefly, a midline neck incision was made under the operation microscope; the right common carotid artery (CCA), external carotid artery (ECA) and internal carotid artery (ICA) were isolated. The ECA was ligated with 6-0 silk suture distal from the ICA-ECA branch and then cut distal from ligated point. Another 6-0 silk suture was tied loosely around ECA at close to the origin at the CCA. A blunted 5-0 monofilament nylon suture coated with poly-L-lysine (0.1% in deionized water, Sigma) (Belayev et al. 1999) was introduced from a small incision on ECA and then advanced into the circle of Willis, and finally to the origin of the middle cerebral artery. The silk suture around the ECA stump was tied tightly to prevent bleeding and secure the nylon suture. The nylon suture was removed after 60 minutes occlusion and ECA was permanently tied. Reperfusion was confirmed when pulsations were again observed in ICA.
The CB2 agonists (O-1966 and O-3853: described in Wiley et al and WO 03/091189, incorporated herein by reference, and the copending application of Razdan et al)) were dissolved in a pure ethanol:emulphor:saline mixed solution at 1:1:18. The CB2 agonists (1 mg/kg) or equal volume of vehicle were administered as an intravenous injection into the jugular vein 1 hour before MCAO or 10 minutes after reperfusion. The investigator was blinded with regard to whether the animals were members of vehicle or treatment groups during all experimental procedures and measurements.
Animals were euthanized with an overdose of pentobarbital (200 mg/kg i.p) 24 hours after MCAO and then the brains were removed. The brains were chilled in ice for 10 minutes to slightly harden the tissue. Five 2 mm coronal sections were cut using a mouse brain matrix (Zivic lab).The brain sections were placed in 2% triphenyltetrazolium chloride (TTC) (Sigma, Inc) dissolved in saline and stained for 20 minutes at 37° C. in the dark. The brain sections were then fixed in 4% paraformaldehyde at 4° C. for 24 hours and the anterior and caudal face of each section was scanned by a flatbed color scanner (Microtek Inc). The resulting images were captured as JPEG files (FIG. 2E) and analyzed with NIH image software. The infarct volumes were expressed as mm^3 as well as the percentage of the ipsilateral hemisphere.

CB1 receptor = target: T1, CB1 receptor (Rattus norvegicus, UniProt P20272); details: reported previously (Wiley et al. 2002); read-out: affinity for CB1 cannabinoid receptor; cited from earlier work
T1 construct: from tissue; host or cells: rat brain membranes
T1 sequence (P20272 whole entry): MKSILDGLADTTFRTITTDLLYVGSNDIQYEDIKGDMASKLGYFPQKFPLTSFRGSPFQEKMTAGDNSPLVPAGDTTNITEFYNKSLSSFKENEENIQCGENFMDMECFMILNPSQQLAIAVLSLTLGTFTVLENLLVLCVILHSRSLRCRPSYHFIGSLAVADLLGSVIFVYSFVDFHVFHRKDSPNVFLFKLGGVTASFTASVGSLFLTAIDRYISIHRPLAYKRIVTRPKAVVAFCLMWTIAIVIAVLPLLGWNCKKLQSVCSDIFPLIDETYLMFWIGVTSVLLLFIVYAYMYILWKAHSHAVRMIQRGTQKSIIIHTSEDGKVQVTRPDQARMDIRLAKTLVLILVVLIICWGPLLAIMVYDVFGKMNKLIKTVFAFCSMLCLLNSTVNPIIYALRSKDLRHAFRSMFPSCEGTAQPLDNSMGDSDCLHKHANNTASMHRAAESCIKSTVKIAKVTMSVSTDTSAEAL

human CB2 receptor [4] = target: T2, human CB2 receptor (Homo sapiens, UniProt P34972); details: reported previously (Wiley et al. 2002); read-out: affinity for CB2 cannabinoid receptor; cited from earlier work
T2 construct: expressed in transfected cells
T2 sequence (P34972 whole entry): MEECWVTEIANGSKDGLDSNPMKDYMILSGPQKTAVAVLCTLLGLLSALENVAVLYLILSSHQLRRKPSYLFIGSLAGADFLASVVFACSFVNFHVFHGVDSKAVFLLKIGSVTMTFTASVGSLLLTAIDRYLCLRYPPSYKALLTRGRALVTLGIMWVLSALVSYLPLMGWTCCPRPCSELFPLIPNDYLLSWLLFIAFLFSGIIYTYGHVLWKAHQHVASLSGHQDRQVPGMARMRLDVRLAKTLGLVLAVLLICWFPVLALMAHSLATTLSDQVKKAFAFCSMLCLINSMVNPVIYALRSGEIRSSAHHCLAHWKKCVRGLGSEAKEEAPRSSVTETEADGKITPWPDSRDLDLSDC

mice [5] = test: Tetrad test (locomotor activity, analgesia, body temperature, catalepsy), indicative of CB1 receptor activity; type: in vivo, mouse; details: i.v., doses up to 30 mg/kg
Protocol: The cerebral ischemia/reperfusion studies were carried out on 8 week old male C57BL/6 mice (weighing 23 to 27 g; Taconic N.Y.) and conducted in accordance with the guidelines approved by Institute for Animal Care and Use Committee at Temple University. The behavioural evaluation of the cannabinoid analogs was carried out in 8-week old ICR male mice weighing 23-27 g in accordance with the guidelines approved by the Institute for Animal Care and Use Committee at Virginia Commonwealth University.
(§2) (Martin et al. 2002; Wiley et al. 2002) CB1 and CB2 receptor affinities were determined using ^3H-CP 55,940 binding to rat brain membranes and to Chinese Hamster Ovary (CHO) cells stably expressing the human CB2 receptor, respectively. In vitro functional activity was determined in these same preparations using ^35S-GTPγS binding. For in vivo behavioural effects, mice were injected intravenously with the drugs prepared in ethanol:emulphor:saline (1:1:18). The mice were evaluated for locomotor activity, analgesia, body temperature, and catalepsy. These behaviours are collectively referred to as the tetrad test and are indicative of CB1 receptor activity.

human CB2 receptor [6] = target: T2, human CB2 receptor; test: 35S-GTPγS binding, CHO cells expressing human CB2 receptor; type: biochemical
Protocol: as §2

C57BL/6 mice [7] = test: Leukocyte/endothelial interactions by intravital microscopy through a cranial window in MCAO/R; type: in vivo, mouse; details: treatment 1 hour before MCAO
Protocol: On the day of cranial window implantation, the animals were anesthetized with an intraperitoneal injection of Ketamine (100 mg/ml)-Xylazine (20 mg/kg) mixture (1:1) at a dose of 1 ml/kg. The head was shaved and positioned in a stereotactic head holder. A 1 cm^2 area of skin on the dorsal surface of the skull over the right cortical hemisphere was excised and the periosteum was removed. A 4 mm diameter circular craniotomy was performed using a high speed drill (Champ-Air Dental Drill Benco Dental) over the right parietal cortex extending from attachment of the temporal muscle to midpoint of sagittal suture in the coronal direction and aligned to middle of the sagittal suture, so that the window contained some terminal branches of the middle cerebral artery. Normal saline was dripped over the cranium to avoid thermal injury of the cortex. […]
Leukocyte/endothelial interactions were evaluated before MCAO, 1 hour after MCAO and 24 hours after MCAO. […] Three venules (with diameter 30-50 μm) and three arterioles (with diameter 20-40 μm) in each animal were assessed. […] They were counted when they passed an arbitrary line perpendicular to the longitudinal axis of the vessel over a period of 30 seconds. […] Adhering leukocytes were scored as the number of cells per mm^2 of the vascular surface area, calculated from the diameter and standardized length (100 μm) of the vessel segment under investigation.

C57BL/6 mice [8] = test: Regional cerebral blood flow (rCBF) during MCAO; type: in vivo, mouse; details: 1 mg/kg, 1 hour prior to occlusion, versus vehicle
Protocol: as §1
A laserPro Blood Perfusion Monitor (TSI Inc) was used to monitor regional cerebral blood flow (rCBF) prior to ischemia, during MCAO and reperfusion. […]

mice [9] = details: reference CB1/CB2 agonist, all four measures; cited from earlier work
[10] = 1 mg/kg i.v. 10 minutes after reperfusion (post-reperfusion treatment)
[11] = 1 mg/kg i.v. 1 hour before MCAO (pre-ischemic treatment)

SMILES	motor function recovery (BMS and BBB) (C57BL/6 mice [1]; 1 mg/kg i.p. one hour before, 24 and 48 hours after injury, days 1, 7 and 14)	bladder function recovery rate (C57BL/6 mice [1]; 1 mg/kg i.p., 14th day after SCI, control group 14%) [%]	TNF-α expression in the injured spinal cord (C57BL/6 mice [1]; real time RT-PCR, 24 hours after SCI, compared to control group)	motor function score (C57BL/6 mice [2]; pretreatment 1 hour before MCAO, vehicle 3.25±0.20)	motor function (C57BL/6 mice [2]; treatment during reperfusion)	infarct volume (C57BL/6 mice [3]; [10]) [mm^3]	infarct volume as percentage of the ipsilateral hemisphere (C57BL/6 mice [3]; [10]) [%]	infarct volume (C57BL/6 mice [3]; [11]) [mm^3]	infarct volume as percentage of the ipsilateral hemisphere (C57BL/6 mice [3]; [11]) [%]	Ki (CB1 receptor) [nM]	Ki (human CB2 receptor [4]) [nM]	effects in the tetrad test (CB1 receptor-mediated behavioural effects) (mice [5])	EC50 (human CB2 receptor [6]; CHO cells with human CB2, read-out: EC50 for stimulating 35S-GTPγS binding (CB2)) [nM]	Emax (human CB2 receptor [6]; percent of maximal stimulation produced by the full agonist CP 55,940) [%]	leukocyte/endothelial interactions (C57BL/6 mice [7])	effect on rCBF during the 1 hour occlusion period (C57BL/6 mice [8])	ED50's in the four tetrad measures (mice [9]) [mg/kg]
CCCCCCC(C)(C)c1cc(OC)c(C2(O)CCCC(C)C2)c(OC)c1 (centres unmarked) [O-1966]	better motor function recovery than the control group	45	decreased TNF-α expression	1.69±0.30	significantly improved the motor function	71.3±5.5	27±2	65.6±4.0	25±2.5	5060	23 ± 2.1	produced some modest behavioural effects only at doses that far exceeded those used in the MCAO/R studies; also recorded: failed to produce effects in the tetrad test	70 ± 14	74 ± 5	attenuated leukocyte/endothelial interactions	no effect on rCBF	
CCCCCc1cc(O)c2c(c1)OC(C)(C)[C@@H]1CCC(C)=C[C@@H]21 [Δ^9-tetrahydrocannabinol]																	1 to 2

— patent US9763894B2, “Inflammation therapy” (Virginia Commonwealth University, priority 2006, dated 2017)
